Assay [1] is described as follows: growth suppression of PTEN-null colon cells, dose response, cell-based, HCT116 PTEN knockout (AID 1047).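 Further: HCT116 colon tumor cells with PTEN knocked out; cells exposed to compound for 60 hours before readout; potency for loss of cell viability measured by luminescence.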 The class given is functional.
Assay [2] in a line: cytotoxicity toward NIH3T3 fibroblasts, dose response, counter-screen, cell-based, ATP luminescence, mouse fibroblasts (AID 2010).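 Further: cells exposed to compound for about 90 hours before reading.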 In kind it is functional. (Counterscreens check selectivity or assay interference.)
Assay [3] is described as follows: inhibitors of intracellular T. cruzi replication, confirmation, NIH3T3 host cells, beta-gal luminescence (AID 2044).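 Further: intracellular parasites grown in NIH/3T3 mouse fibroblasts as host cells; luminescent beta-galactosidase reporter signal from transgenic T. cruzi replicating inside host cells; inhibitors lower the luminescence signal.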 In kind it is functional, cell-based.
Assay [4] can be described thus: A549 cell cytotoxicity, dose response, cytotoxicity control, plate reader, cherry-pick, antagonist series (AID 743412). The class given is functional, cell-based.
The nature of assay [5]: MC4R antagonists, dose response, counter-screen for LGR2 antagonist project, cell-based, plate reader, cherry pick (AID 743444).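 Further: transfected HEK 293 cells stimulated with alpha-MSH peptide; potency of inhibitors of the alpha-MSH evoked signal.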 In kind it is functional.
The nature of assay [6]: growth suppression of beta-catenin-knockout colon cells, dose response, cell-based, HCT116, human colon tumor (AID 1045).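 Further: HCT116 colon tumor cells with beta catenin knocked out; cells exposed to compound for 60 hours.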 In kind it is functional.
Assay [7] has as its target T1, Short transient receptor potential channel 4 (Mus musculus, UniProt Q9QUQ5).
T1 sequence (Q9QUQ5 whole entry): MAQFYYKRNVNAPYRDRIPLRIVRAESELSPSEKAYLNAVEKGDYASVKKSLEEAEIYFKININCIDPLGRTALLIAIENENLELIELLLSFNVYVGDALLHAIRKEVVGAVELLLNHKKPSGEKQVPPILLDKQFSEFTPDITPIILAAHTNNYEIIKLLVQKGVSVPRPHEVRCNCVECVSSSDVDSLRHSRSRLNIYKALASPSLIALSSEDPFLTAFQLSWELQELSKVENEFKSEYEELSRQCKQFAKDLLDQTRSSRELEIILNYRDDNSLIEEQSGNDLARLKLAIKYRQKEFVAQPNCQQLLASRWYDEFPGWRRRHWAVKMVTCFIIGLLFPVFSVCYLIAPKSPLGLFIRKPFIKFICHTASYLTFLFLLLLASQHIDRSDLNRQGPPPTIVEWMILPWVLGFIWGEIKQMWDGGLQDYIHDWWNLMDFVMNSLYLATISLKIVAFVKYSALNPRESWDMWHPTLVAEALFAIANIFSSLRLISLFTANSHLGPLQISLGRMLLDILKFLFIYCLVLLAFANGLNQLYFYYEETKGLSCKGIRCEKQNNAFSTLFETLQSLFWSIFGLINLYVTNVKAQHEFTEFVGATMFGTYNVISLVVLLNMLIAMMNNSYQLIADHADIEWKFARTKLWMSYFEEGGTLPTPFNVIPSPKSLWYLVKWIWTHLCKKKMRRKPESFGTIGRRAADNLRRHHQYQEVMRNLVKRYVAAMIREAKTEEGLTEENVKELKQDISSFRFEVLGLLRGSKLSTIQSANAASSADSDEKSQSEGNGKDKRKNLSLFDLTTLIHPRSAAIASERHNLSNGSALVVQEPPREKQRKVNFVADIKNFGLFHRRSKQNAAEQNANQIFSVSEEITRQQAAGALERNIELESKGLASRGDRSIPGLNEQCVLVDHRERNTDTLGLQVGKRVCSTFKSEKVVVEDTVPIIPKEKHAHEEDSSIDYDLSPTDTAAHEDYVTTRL
As to the kind of experiment: mouse TRPC4 channel inhibitors, dose response, cell-based, HEK293 TRPC4/mu-opioid, Fluo-4 calcium (AID 434942).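 Further: potency of inhibitors blocking the TRPC4 calcium response.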 In kind it is functional.

Here are results for four compounds from ChEMBL document CHEMBL1201862, “PubChem BioAssay data set” (2004).

The source made the active and inactive calls.

On to `CC(C)CCNC(=O)C(c1ccc(O)cc1)N(Cc1cccs1)C(=O)C1COc2ccccc2O1` (centres undefined), for which the concentration giving a half-maximal response (EC50) was 19.5 µM (active) in assay [1], > 60 µM (inconclusive) in assay [2], 1.58 µM (active) in assay [3] and 21.4 µM (active) in assay [6]. Also, the AC50 is > 52 µM (inactive) in assay [4] and 35.3 µM (active) in assay [5].

For `Cc1ccc(-n2nc(-c3cccs3)cc2C(=O)NCC2CCCO2)c(C)c1` (centres undefined), the EC50 in assay [7] was 4.73 µM (active).

In the case of `CCOCCCNCc1cc(Br)ccc1OCc1ccccc1`, the EC50 in assay [7] is 1.33 µM (active).

Regarding `CC(C1CC2CCC1C2)n1c(S)nnc1-c1cccs1` (centres undefined), the EC50 in assay [7] is 2.66 µM (active).

As usually defined, the EC50 is the concentration that produces a half-maximal response. For orientation: AC50 means the concentration at which the activity in the assay is half-maximal.
